Laboratory results from ChEMBL document CHEMBL4837230, “Thiophene-2-carboxamide derivatives of anthraquinone: A new potent antitumor chemotype” (Eur J Med Chem, 2021).
Active and inactive are the calls of the source. The calls are words filed in the database; no cut-off is given here.

Legend:
[1] = Cytotoxicity in human DND41 cells assessed as reduction in cell viability incubated for 72 hrs by MTT assay; type: functional, cell-based; settings: DND41, 72 h
[2] = tested on: K562; test: Induction of cell cycle arrest in human K562 cells assessed as increase in accumulation at sub-G1 phase at 0.5 uM after 48 hrs by propidium iodide staining based flow cytometric analysis (reference value: 8.4%); type: functional
[3] = tested on: HCT-116; test: Cytotoxicity against p53 knock out human HCT-116 cells assessed as reduction in cell viability incubated for 72 hrs by MTT assay; type: functional, cell-based; settings: HCT-116, 72 h
[4] = biological target: T1, DNA topoisomerase 1 (Homo sapiens) (UniProt P11387); test: Inhibition of topoisomerase 1 (unknown origin) assessed as relaxation of supercoiled plasmid pBR322 DNA at 1 to 5 uM incubated for 30 mins by electrophoresis; settings: dose 1-5 µM
T1 sequence (whole entry): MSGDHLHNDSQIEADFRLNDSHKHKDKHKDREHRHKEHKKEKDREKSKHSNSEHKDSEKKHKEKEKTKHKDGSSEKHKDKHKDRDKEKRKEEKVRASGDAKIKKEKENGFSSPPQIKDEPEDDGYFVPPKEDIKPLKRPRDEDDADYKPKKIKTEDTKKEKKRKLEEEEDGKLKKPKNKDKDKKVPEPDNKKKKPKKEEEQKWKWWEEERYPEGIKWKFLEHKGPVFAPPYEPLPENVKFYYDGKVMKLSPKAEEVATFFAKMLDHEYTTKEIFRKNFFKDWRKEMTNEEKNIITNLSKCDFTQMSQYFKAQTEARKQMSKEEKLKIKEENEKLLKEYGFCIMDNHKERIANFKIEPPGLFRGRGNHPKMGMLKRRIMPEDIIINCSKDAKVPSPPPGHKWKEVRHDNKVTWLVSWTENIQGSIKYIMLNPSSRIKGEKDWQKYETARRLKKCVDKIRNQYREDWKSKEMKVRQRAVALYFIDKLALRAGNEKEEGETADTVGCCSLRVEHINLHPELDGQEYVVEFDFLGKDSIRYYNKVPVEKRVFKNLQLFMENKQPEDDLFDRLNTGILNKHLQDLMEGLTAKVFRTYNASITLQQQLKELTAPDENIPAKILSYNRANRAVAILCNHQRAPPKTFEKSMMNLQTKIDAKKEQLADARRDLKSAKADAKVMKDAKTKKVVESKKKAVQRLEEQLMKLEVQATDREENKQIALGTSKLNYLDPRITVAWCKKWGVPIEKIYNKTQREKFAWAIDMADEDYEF

[5] = Drug localization in mitochondria of mouse NIH3T3 cells at 1 uM measured after 60 mins by MitoTracker red based confocal microscopic method; type: ADME; settings: nih3t3, 1 h
[6] = Cytotoxicity in human K562/4 cells assessed as reduction in cell viability incubated for 72 hrs by MTT assay; type: functional, cell-based; settings: K562/4, 72 h
[7] = Resistance index, ratio of IC50 for cytotoxicity against p53 knock out human HCT-116 cells to IC50 for cytotoxicity against human HCT-116 cells; type: functional
[8] = tested on: NCI-H460; test: Cytotoxicity in human NCI-H460 cells assessed as reduction in cell viability incubated for 72 hrs by MTT assay; type: functional, cell-based; settings: NCI-H460, 72 h
[9] = tested on: HCT-116; test: Cytotoxicity in human HCT-116 cells assessed as reduction in cell viability incubated for 72 hrs by MTT assay; type: functional, cell-based; settings: HCT-116, 72 h
[10] = Drug localization in cytoplasm of mouse NIH3T3 cells at 1 uM incubated for 5 to 60 mins by laser confocal microscopy; type: ADME, cell-based; settings: nih3t3, 1 µM, time 5-60 min
[11] = tested on: Calf thymus DNA; test: Binding affinity to calf thymus double strand DNA incubated for 5 mins by spectrophotometry; type: nucleic-acid assay; settings: Bos taurus
[12] = tested on: Fibroblast; test: Cytotoxicity in human Fibroblast cells assessed as reduction in cell viability incubated for 72 hrs by MTT assay; type: functional, cell-based
[13] = tested on: K562; test: Induction of apoptosis in human K562 cells assessed as activation of PARP cleavage measured after 24 hrs by Western blot analysis; type: functional, cell-based
[14] = Drug localization in nuclei of mouse NIH3T3 cells at 1 uM incubated for 5 to 60 mins by Hoechst 33258 staining based laser confocal microscopy; type: ADME, cell-based; settings: nih3t3, 1 µM, time 5-60 min
[15] = Drug localization in mitochondria of mouse NIH3T3 cells at 1 uM measured after 5 mins by MitoTracker red based confocal microscopic method; type: ADME; settings: nih3t3, 5 min
[16] = tested on: K562; test: Induction of mitochondrial membrane potential loss in human K562 cells at 7.5 uM after 6 hrs by Mitotracker Red dye based flow cytometric analysis; type: functional, cell-based
[17] = tested on: K562; test: Induction of cell cycle arrest in human K562 cells assessed as increase in accumulation at sub-G1 phase at 5 uM after 24 hrs by propidium iodide staining based flow cytometric analysis (reference value: 8.4%); type: functional
[18] = tested on: K562; test: Induction of cell cycle arrest in human K562 cells assessed as increase in accumulation at sub-G1 phase at 0.5 uM after 24 hrs by propidium iodide staining based flow cytometric analysis (reference value: 8.4%); type: functional
[19] = tested on: K562; test: Induction of ROS generation in human K562 cells at 5 uM after 30 to 60 mins by Deep Red dye based flow cytometry method; type: functional, cell-based; settings: time 30-60 min
[20] = tested on: K562; test: Induction of cell cycle arrest in human K562 cells assessed as increase in accumulation at sub-G1 phase at 2.5 uM after 24 hrs by propidium iodide staining based flow cytometric analysis (reference value: 8.4%); type: functional
[21] = Resistance index, ratio of IC50 for cytotoxicity against human K562/4 cells to IC50 for cytotoxicity against human K562 cells; type: functional
[22] = Drug localization in lysosome of mouse NIH3T3 cells at 1 uM incubated for 5 mins by lyso-tracker red based confocal microscopic method; type: ADME, cell-based; settings: nih3t3, 5 min
[23] = tested on: HL-60; test: Cytotoxicity in human HL-60 cells assessed as reduction in cell viability incubated for 72 hrs by MTT assay; type: functional, cell-based; settings: HL-60, 72 h
[24] = tested on: HeLa; test: Cytotoxicity in human HeLa cells assessed as reduction in cell viability incubated for 72 hrs by MTT assay; type: functional, cell-based
[25] = Drug localization in lysosome of mouse NIH3T3 cells at 1 uM incubated for 60 mins by lyso-tracker red based confocal microscopic method; type: ADME, cell-based; settings: nih3t3, 1 h
[26] = tested on: K562; test: Induction of cell cycle arrest in human K562 cells assessed as increase in accumulation at sub-G1 phase at 5 uM after 48 hrs by propidium iodide staining based flow cytometric analysis (reference value: 8.4%); type: functional
[27] = tested on: CAPAN-1; test: Cytotoxicity in human CAPAN-1 cells assessed as reduction in cell viability incubated for 72 hrs by MTT assay; type: functional, cell-based; settings: CAPAN-1, 72 h
[28] = tested on: K562; test: Induction of apoptosis in human K562 cells assessed as activation of casapse-3 cleavage measured after 24 hrs by Western blot analysis; type: functional, cell-based; settings: dose 2.5 µM
[29] = tested on: K562; test: Induction of cell cycle arrest in human K562 cells assessed as increase in accumulation at sub-G1 phase at 2.5 uM after 48 hrs by propidium iodide staining based flow cytometric analysis (reference value: 8.4%); type: functional
[30] = tested on: K562; test: Induction of apoptosis in human K562 cells assessed as activation of casapse-9 cleavage measured after 24 hrs by Western blot analysis; type: functional, cell-based

## N[C@H]1CCN(C(=O)c2csc3c(O)c4c(c(O)c23)C(=O)c2ccccc2C4=O)C1
[1]
  IC50: 2600 nM

## N[C@H]1CCN(C(=O)c2cc3c(O)c4c(c(O)c3o2)C(=O)c2ccccc2C4=O)C1
[2]
  Activity: 7%
[3]
  IC50: > 50000 nM
[4]
  inhibition: Active
[5]
  Drug uptake: Not Active
[6]
  IC50: 600 nM
[7]
  Ratio: 1
[8]
  IC50: > 20000 nM
[9]
  IC50: > 50000 nM
[10]
  Drug uptake: Active
[11]
  Activity: Active
[12]
  IC50: > 50000 nM
[13]
  Activity: inactive
[14]
  Drug uptake: Not Active
[15]
  Drug uptake: Not Active
[1]
  IC50: 1500 nM
[16]
  Activity: inactive
[17]
  Activity: 40.2%
[18]
  Activity: 14.8%
[19]
  Activity: inactive
[20]
  Activity: 24.2%
[21]
  Ratio: 1.2
[22]
  Drug uptake: Active
[23]
  IC50: 700 nM
[24]
  IC50: > 50000 nM
[25]
  Drug uptake: Active
[26]
  Activity: 48.7%
[27]
  IC50: > 20000 nM
[28]
  Activity: inactive
[29]
  Activity: 23%
[30]
  Activity: inactive

## COc1cccc2c1C(=O)c1c(O)c3c(c(O)c1C2=O)C[C@@](O)(C(=O)CO)C[C@@H]3O[C@H]1C[C@H](N)[C@H](O)[C@H](C)O1 [DOXORUBICIN]
[8]
  IC50: 400 nM
[12]
  IC50: 200 nM
[1]
  IC50: 700 nM
[27]
  IC50: 1700 nM

## O=C(NC1CCNCC1)c1cc2c(O)c3c(c(O)c2s1)C(=O)c1ccccc1C3=O
[8]
  IC50: 1400 nM
[1]
  IC50: 1600 nM
[23]
  IC50: 3200 nM
[27]
  IC50: 600 nM

## N[C@@H]1CCN(C(=O)c2cc3c(O)c4c(c(O)c3s2)C(=O)c2ccccc2C4=O)C1
[8]
  IC50: 400 nM
[1]
  IC50: 400 nM
[23]
  IC50: 1100 nM
[27]
  IC50: 1500 nM

## O=C(NC1CN2CCC1CC2)c1cc2c(O)c3c(c(O)c2s1)C(=O)c1ccccc1C3=O (stereo not drawn)
[8]
  IC50: > 20000 nM
[1]
  IC50: 2400 nM
[23]
  IC50: 7300 nM
[27]
  IC50: 4600 nM

## O=C(NC1CCCNC1)c1cc2c(O)c3c(c(O)c2s1)C(=O)c1ccccc1C3=O (racemic)
[8]
  IC50: 1400 nM
[1]
  IC50: 1000 nM
[23]
  IC50: 1100 nM
[27]
  IC50: 2300 nM

## O=C(N[C@H]1CCNC1)c1cc2c(O)c3c(c(O)c2s1)C(=O)c1ccccc1C3=O
[8]
  IC50: 3500 nM
[1]
  IC50: 1000 nM
[23]
  IC50: 2900 nM
[27]
  IC50: 6300 nM

## Cc1c(C(=O)N2CC[C@@H](N)C2)sc2c(O)c3c(c(O)c12)C(=O)c1ccccc1C3=O
[8]
  IC50: 1200 nM
[1]
  IC50: 1400 nM
[23]
  IC50: 1800 nM
[27]
  IC50: 2000 nM

## NC1CCCN(C(=O)c2cc3c(O)c4c(c(O)c3s2)C(=O)c2ccccc2C4=O)C1 (racemic)
[8]
  IC50: 400 nM
[1]
  IC50: 600 nM
[23]
  IC50: 400 nM
[27]
  IC50: 1200 nM

## O=C(N[C@@H]1CCNC1)c1cc2c(O)c3c(c(O)c2s1)C(=O)c1ccccc1C3=O
[8]
  IC50: 4100 nM
[1]
  IC50: 1300 nM
[23]
  IC50: 2700 nM
[27]
  IC50: 5800 nM

## NCCNC(=O)c1cc2c(O)c3c(c(O)c2s1)C(=O)c1ccccc1C3=O
[8]
  IC50: 8300 nM
[1]
  IC50: 3700 nM
[23]
  IC50: > 20000 nM
[27]
  IC50: > 20000 nM

## NCCN(CCN)C(=O)c1cc2c(O)c3c(c(O)c2s1)C(=O)c1ccccc1C3=O
[8]
  IC50: 8300 nM
[1]
  IC50: 3100 nM
[23]
  IC50: 14100 nM
[27]
  IC50: 16800 nM

## N[C@@H]1CN(C(=O)c2cc3c(O)c4c(c(O)c3s2)C(=O)c2ccccc2C4=O)C[C@H]1N
[8]
  IC50: 16100 nM
[1]
  IC50: 10900 nM
[23]
  IC50: > 20000 nM
[27]
  IC50: > 20000 nM

## Cc1c(C(=O)N2CC[C@H](N)C2)sc2c(O)c3c(c(O)c12)C(=O)c1ccccc1C3=O
[8]
  IC50: 5000 nM
[1]
  IC50: 1600 nM
[23]
  IC50: 200 nM
[27]
  IC50: 2200 nM
